In publication PMC11502502 (Nature cancer, 2024):
Where “and” joins values, the source holds several entries; their conditions need not be identical. Equal entries are not always repeated.

Assays:
Format in all cases: in vivo
[1] = test system: SNU398 (HCC) xenografts; assay: SNU398 liver cancer xenograft efficacy; settings: SNU-398 (HCC) tumor bearing mice, Regorafinib 30 mg/kg qd po, one value per animal
[2] = test system: THP-1 (AML) xenografted mice; assay: THP-1 AML xenograft efficacy; set-up: anti-tumor efficacy in THP-1 (AML)-tumor bearing mice, individual measurements: unit not given here; settings: for anti-tumor efficacy in THP-1 (AML)-tumor bearing mice, individual measurements: Venetoclax, animals #5001-#5010
[3] = test system: MV-4–11 (AML)-xenografted mice; assay: MV-4–11 AML xenograft efficacy and overall survival; set-up: anti-tumor efficacy in MV-4-11 (AML)-tumor bearing mice in combination with SoC (tumor measurement per animal): unit not given here; settings: for Overall survival of MV-4-11 (AML)-tumor bearing mice: BRD-810 50 mg/kg; for anti-tumor efficacy in MV-4-11 (AML)-tumor bearing mice in combination with SoC (tumor measurement per animal): individual animals, BRD-810 50mg/kg

How did the “anti-tumor efficacy, individual measurements” value ([1]; day 1 post treatment start) turn out when `CNC(=O)c1cc(Oc2ccc(NC(=O)Nc3ccc(Cl)c(C(F)(F)F)c3)c(F)c2)ccn1` [Regorafinib] was run?
Its value is 63.45 and 60.8 and 64.88 and 117.14 and 74.08 and 111.9 and 95.85.

And the “anti-tumor efficacy, individual measurements” value ([1]; day 3 post treatment start)?
Its value is 72 and 76.25 and 72.91 and 127.45 and 81.33 and 119.22 and 106.01.

And the “anti-tumor efficacy, individual measurements” value ([1]; day 7 post treatment start)?
Its value is 83.42 and 75.99 and 78.47 and 145.78 and 87.63 and 117.37.

What about the “anti-tumor efficacy, individual measurements” value ([1]; day 8 post treatment start) of the same compound?
Its value is 100.66 and 81.04 and 87.14 and 150.75 and 99.27 and 129.84.

And the “anti-tumor efficacy, individual measurements” value ([1]; day 10 post treatment start)?
Its value is 89.75 and 86.89 and 87.88 and 152.45 and 93.82 and 132.88.

What about the “anti-tumor efficacy, individual measurements” value ([1]; day 13 post treatment start) of the same compound?
The value was 96.32 and 85.08 and 98.92 and 145.11 and 103.54 and 167.23.

Which “Antitumor efficacy, single agent” value ([2]; 100 mg kg^−1 orally, daily) does the source give for `CC1(C)CCC(CN2CCN(c3ccc(C(=O)NS(=O)(=O)c4ccc(NCC5CCOCC5)c([N+](=O)[O-])c4)c(Oc4cnc5[nH]ccc5c4)c3)CC2)=C(c2ccc(Cl)cc2)C1` [venetoclax] here?
Its value is “neither the Bcl-2 inhibitor venetoclax nor cytarabine showed appreciable single-agent efficacy”.

And the “anti-tumor efficacy in THP-1 (AML)-tumor bearing mice, individual measurements” value ([2]; day 1 post treatment start)?
Its value is 36.27 and 38.57 and 29.6 and 32.89 and 34.28 and 28.35 and 32.76 and 34.15 and 38.81 and 36.79.

And the “anti-tumor efficacy in THP-1 (AML)-tumor bearing mice, individual measurements” value ([2]; day 3 post treatment start)?
Its value is 46.08 and 62.31 and 36.23 and 49.99 and 71.57 and 33.25 and 37.51 and 51.73 and 48.97 and 53.06.

And the “anti-tumor efficacy in THP-1 (AML)-tumor bearing mice, individual measurements” value ([2]; day 6 post treatment start)?
Its value is 58.2 and 76.5 and 34.06 and 66.44 and 87.06 and 33.28 and 39.03 and 72.1 and 63 and 57.59.

And the “anti-tumor efficacy in THP-1 (AML)-tumor bearing mice, individual measurements” value ([2]; day 8 post treatment start)?
The value was 70.38 and 85.8 and 36.3 and 78.87 and 103.9 and 36.38 and 41.14 and 85.31 and 91.47 and 80.8.

And the “anti-tumor efficacy in THP-1 (AML)-tumor bearing mice, individual measurements” value ([2]; day 10 post treatment start)?
Its value is 100.62 and 113 and 44.66 and 100.81 and 143.73 and 36.12 and 44.28 and 122.17 and 124.4 and 110.66.

And the “anti-tumor efficacy in THP-1 (AML)-tumor bearing mice, individual measurements” value ([2]; day 13 post treatment start)?
The value was 129.99 and 188.46 and 53.9 and 147.24 and 211.83 and 41.12 and 60.34 and 168.23 and 177.94 and 148.93.

And the “Overall survival of MV-4-11 (AML)-tumor bearing mice” value (from here on “Overall survival”) ([3]; day 0 post treatment start)?
Its value is 100.

What about the “Overall survival” value ([3]; day 1 post treatment start) of the same compound?
The value was 100.

And the “anti-tumor efficacy in MV-4-11 (AML)-tumor bearing mice in combination with SoC (tumor measurement per animal)” value ([3]; day 1 post treatment start)?
Its value is 33.13 and 28.19 and 34.15 and 35.82 and 29.42 and 37.09 and 44.34 and 37.28 and 33.74 and 41.97.

And the “Overall survival” value ([3]; day 4 post treatment start)?
The value was 100.

What about the “anti-tumor efficacy in MV-4-11 (AML)-tumor bearing mice in combination with SoC (tumor measurement per animal)” value ([3]; day 4 post treatment start) of the same compound?
Its value is 32.39 and 37.39 and 43.94 and 50.14 and 32.53 and 44.14 and 52.92 and 48.8 and 41.66 and 49.99.

What about the “Overall survival” value ([3]; day 8 post treatment start) of the same compound?
The value was 100.

And the “anti-tumor efficacy in MV-4-11 (AML)-tumor bearing mice in combination with SoC (tumor measurement per animal)” value ([3]; day 8 post treatment start)?
The value was 41.04 and 57.44 and 59.24 and 62.99 and 49.55 and 52.42 and 59.83 and 53.52 and 48.45 and 66.98.

What about the “Overall survival” value ([3]; day 11 post treatment start) of the same compound?
The value was 100.

What about the “anti-tumor efficacy in MV-4-11 (AML)-tumor bearing mice in combination with SoC (tumor measurement per animal)” value ([3]; day 11 post treatment start) of the same compound?
Its value is 47.19 and 72.26 and 75.92 and 72.38 and 72.25 and 70.02 and 85.2 and 60.52 and 70.23 and 97.04.

What about the “Overall survival” value ([3]; day 15 post treatment start) of the same compound?
The value was 100.

What about the “anti-tumor efficacy in MV-4-11 (AML)-tumor bearing mice in combination with SoC (tumor measurement per animal)” value ([3]; day 15 post treatment start) of the same compound?
The value was 63.44 and 101.62 and 98.93 and 111.48 and 113.46 and 108.85 and 111.46 and 76.94 and 80.71 and 124.01.

What about the “Overall survival” value ([3]; day 16 post treatment start) of the same compound?
The value was 100.

And the “anti-tumor efficacy in MV-4-11 (AML)-tumor bearing mice in combination with SoC (tumor measurement per animal)” value ([3]; day 16 post treatment start)?
Its value is 66 and 108.03 and 100.41 and 123.76 and 112.88 and 118.57 and 116.35 and 89.12 and 87.16 and 125.05.

And the “Overall survival” value ([3]; day 17 post treatment start)?
Its value is 0.

And the “anti-tumor efficacy in MV-4-11 (AML)-tumor bearing mice in combination with SoC (tumor measurement per animal)” value ([3]; day 17 post treatment start)?
Its value is 74.19 and 130.91 and 105.55 and 136.78 and 132.34 and 126.42 and 134.13 and 95.37 and 110.48 and 139.48.

What about the “Overall survival” value ([3]; day 19 post treatment start) of the same compound?
The value was 0.

What about the “Overall survival” value ([3]; day 22 post treatment start) of the same compound?
The value was 0.

And the “Overall survival” value ([3]; day 23 post treatment start)?
The value was 0.

What about the “Overall survival” value ([3]; day 24 post treatment start) of the same compound?
Its value is 0.

And the “Overall survival” value ([3]; day 25 post treatment start)?
Its value is 0.

What about the “Overall survival” value ([3]; day 28 post treatment start) of the same compound?
The value was 0.

What about the “Overall survival” value ([3]; day 30 post treatment start) of the same compound?
The value was 0.

What about the “Overall survival” value ([3]; day 32 post treatment start) of the same compound?
The value was 0.

What about the “Overall survival” value ([3]; day 34 post treatment start) of the same compound?
Its value is 0.

And the “Overall survival” value ([3]; day 37 post treatment start)?
Its value is 0.

And the “Overall survival” value ([3]; day 39 post treatment start)?
Its value is 0.

And the “Overall survival” value ([3]; day 41 post treatment start)?
The value was 0.

And the “Overall survival” value ([3]; day 44 post treatment start)?
Its value is 0.

And the “Overall survival” value ([3]; day 46 post treatment start)?
Its value is 0.

And the “Overall survival” value ([3]; day 48 post treatment start)?
The value was 0.

What about the “Overall survival” value ([3]; day 51 post treatment start) of the same compound?
The value was 0.

And the “Overall survival” value ([3]; day 53 post treatment start)?
The value was 0.
